We go through 1 molecule from patent US9364448B2, “Nitisinone for treatment of oculocutaneous/ocular albinism and for increasing pigmentation” (The United States of America, as represented by the …, priority 2010, dated 2016).

Type in all cases: in vivo, mouse
For assay [1], the system named is C57BL/6J-Tyr^c-h/c-h mice (OCA1b model). Briefly: Coat and ocular pigmentation, clinical examination and electron microscopy, Tyr^c-h/c-h mice. As for the experimental part:
Animal Husbandry and Clinical Examination. C57BL/6J mice (Stock #000664), C57BL/6JTyr^c-2J/c-2J mice (Stock #000058, MGI ID#1855985), and C57BL/6Tyr^c-h/c-h (Stock #000104, MGI ID#1855979) were obtained from the Jackson Laboratory (Bar Harbor, Me.). Mice were housed according to the institutional Animal Review Board standards with a 14 hour light/10 hour dark cycle. These studies conformed to the principles for laboratory animal research outlined by the Animal Welfare Act (NIH/HHS) and the ARVO Statement for the Use of Animals in Ophthalmic and Vision Research and were approved by the Institutional Animal Care and Use Committee of the National Eye Institute. Clinical examination and imaging of the anterior segment of mice were performed on gently-restrained, awake mice using a Haag-Streit BQ slit lamp and Imaging Module IM900® software (Haag-Streit, Inc., Mason, Ohio). Clinical examination of the posterior segment was performed on gently restrained, awake mice after dilation with one drop of 1% tropicamide (Alcon Laboratories, Inc., Fort Worth, Tex.) using an indirect ophthalmoscope (Keeler, Windsor, Berkshire, UK) with a 90D condensing lens (Volk, Mentor, Ohio). Fundus images were obtained on mice sedated with intraperitoneally injected […] diluted in normal saline. Images were obtained using a Nikon D.90 digital SLR camera with a Nikon 85 mm f/2.8D micro AF-S ED lens mounted to a custom-made aluminum stand, using a 5 cm long Hopkins rigid otoscope coupled to a Xenon Nova light source (175 watt) and fiberoptic cable (Karl Storz, Tuttlingen, Germany). Mice were euthanized with carbon dioxide according to institutional guidelines.
Drug Dosing and Monitoring.
Using the same protocol as described above, baseline plasma tyrosine, coat color (gross and microscopic), anterior segment pigment, and posterior segment pigment was documented for each mouse prior to initiating experiments. […] These treated mice were compared to an age- and gender-matched cohort of C57BL/6J-Tyr^c-h/c-h mice over the same time period. Corneal irritation due to NTBC treatment was monitored daily. At the start of treatment, an area of hair was plucked/shaved from each mouse's back, which has the effect of stimulating new hair growth and possibly new pigment deposition in the hair shaft. At the end of four weeks' time, plasma tyrosine concentrations were assessed in both treated and control animals.
Assessment of the effect treatment and the end of the experimental time period commences with photodocumentation of coat color, anterior segment pigment and posterior segment pigment of each mouse. The mice were sacrificed using standard CO2 euthanasia protocol. One eye from each mouse was submitted for light microscopy, while the other is prepared for electron microscopy. Liver and kidney tissues were collected and processed for light microscopy histology, to insure no pathology is associated with treatment. Additional blood samples were taken and frozen at the time of euthanasia, for possible future studies. Hair shafts in plucked and non-plucked areas were examined and photographed under light microscopy. Melanosome number and size was quantified in the retinal pigmented epithelial cells (RPE) and choroid of the posterior pole of both treated and untreated mice, in a masked fashion, as previously described above.

Assay [2] has as its system C57BL/6J-Tyr^c-2J/c-2J mice (OCA1a model). The experiment in a line: Plasma tyrosine in NTBC-treated Tyr^c-2J/c-2J mice. The protocol:
Drug Dosing and Monitoring. […] Plasma tyrosine was assayed from retro-orbital blood taken from mice at 1 week, and 4 weeks into treatment. Because the volume of blood that could be obtained from non-terminal bleeds was small, the plasma from 2-3 mice was pooled to make a single measurement. Plasma samples were frozen immediately after collection on dry ice. Samples ready for assay were gently thawed, diluted with an equal volume of loading buffer (0.2 M lithium citrate, pH 2.2), and filtered using Vivaspin 500 (3000 Da molecular weight cut-off, Sartorius Stedman Biotech, Goettingen, Germany) spun in a fixed angle centrifuge at about 14000×g for 60 minutes at a temperature of about 16-20° C. The supernatant was collected and tyrosine was quantitated on a Biochrom 30 […] (Biochrom, Ltd., Cambridge, UK) using the manufacturer's specifications. At the beginning of the study, baseline plasma concentrations of tyrosine, coat color (gross and microscopic), anterior segment pigment, and posterior segment pigment were documented for each mouse prior to initiating experiments. […] It is known that a possible side effect of NTBC treatment is corneal irritation, which is monitored daily. […] At the end of four weeks time, plasma tyrosine concentrations were assessed in both treated and control animals.

For assay [3] the test system is unchanged. The experiment in a line: Transmission electron microscopy of iris, RPE and choroid, Tyr^c-2J/c-2J mice. As to conditions: treated vs untreated. As for the experimental part:
Transmission Electron Microscopy. Eyes from drug and vehicle-treated mice were dissected and divided into anterior and posterior segments (n=2 eyes from 2 separate mice in each group). The iris and posterior part (choroid, RPE and retina) of the eyes were removed and fixed in 2% glutaraldehyde and 2% paraformaldehyde in 0.1 M sodium phosphate buffer (PB), pH 7.4 for about 12 hours at room temperature (RT). After a wash with rinsing buffer (RB, 4% sucrose and 0.15 mM CaCl2 in PB), pH 7.4 at 4° C., tissues were postfixed in 1% OsO4 in 0.1 M PB, pH 7.4 for 1 hour. After rinsing and dehydration, tissues were embedded in Durcupan resin for 72 hours at 60° C. One micron semi-sections were used for tissue orientation. About 70-90 nm ultrasections were also collected in 200 mesh grids and counterstained with 5% uranyl acetate and 0.3% lead citrate. […]
In order to quantitate the effect of NTBC on pigmentation in ocular tissues and to assess for sub-clinical changes in ocular pigmentation, transmission electron microscopy (TEM) of iris, retinal pigment epithelium (RPE), and choroid of treated and control mice (n=4 eyes from 2 mice for each group) was performed. […]

The mark [4] stands for this setting: Tyr^c-h/c-h (Himalayan) mice, 4 mg/kg orally every other day, one month.

Molecules are shown by their SMILES.

As to `O=C1CCCC(=O)C1C(=O)c1ccc(C(F)(F)F)cc1[N+](=O)[O-]` [NTBC, 2-(-2-nitro-4 trifluoromethylbenzoyl)-1,3 cyclohexanedione], in assay [1] (setting [4]), the Fundus pigmentation entry is reported as “grossly unchanged” and the Iris pigmentation entry is given as “some increase in iris pigmentation”. For the same molecule, the “Coat pigmentation, treated vs control” value in assay [1] (Tyr^c-h/c-h mice, 4 mg/kg orally every other day, one month, shaved patch) was “observable increase in pigmentation”. Moreover, the Phenotypic changes entry in assay [1] (Tyr^c-h/c-h mice, dose as in Example 1 (1 mg/kg every other day), one month) is on record as “no phenotypic changes”. Besides, the “RPE and choroidal melanosome pigment content (electron microscopy)” value in assay [1] (Tyr^c-h/c-h mice, treated vs control, preliminary data, FIG. 3) is listed as “significant increase”. For the same molecule, in assay [2] (Tyr^c-2J/c-2J (OCA1a model), 4 mg/kg q.o.d. oral, after 30 days, n = 4), the Plasma tyrosine concentration is listed as 673 ± 73 μM (n = 4,. For the same molecule, the “Plasma tyrosine concentrations, treated vs control” value in assay [2] (Tyr^c-2J/c-2J mice, 1 mg/kg every other day by oral gavage, one month) is reported as “not statistically significantly different”. Moreover, the “Number of pigmented melanosomes (stages III and IV) in iris, choroid and RPE (TEM)” value in assay [3] was “little to no increase”.
